Legend:
[1] = tested on: Erk; test: Erk activation in BAECs (Western blotting, immunostaining); type: cell-based, bovine; details: 20 μg/ml peptide or 25 μM U0126 for 1 hour; for immunostaining for activated Erk: then 25 ng/ml VEGF 30 minutes; for activation of Erk by VEGF (Western blotting): then VEGF 30 min
Procedure: After 1 hour, 25 ng/ml VEGF was added for 30 minutes. Cells were then fixed and stained for activated Erk.
B. Cells as in A were extracted and analyzed for Erk phosphorylation by Western blotting.
D. BAECs were incubated with peptides and stimulated with VEGF as in C, then lysed and analyzed for Erk activation by Western blotting.
Coverslips were washed and mounted using FluoroMount (Invitrogen).

[2] = tested on: Erk; test: phospho-Erk staining of lung sections from LPS-treated mice; type: in vivo; details: 6 h, peptides 1 mg, UO126 0.5 ml of 70 μM
Procedure: A. Mice were injected with Nck-blocking peptide (1 mg; comprising SEQ ID NO:7), control peptide (1 mg) or UO126 (0.5 ml of 70 μM), then treated with or without LPS as in FIG. 1. At 6 hours, the lungs were removed, sectioned, and stained for activated Erk using pT202/pY204 antibody. Small arrows indicate unidentified cells in control lungs that stain positively. Large arrows indicate conduit blood vessels.
C. Lungs from mice pretreated with 1 mg/ml PIX blocking peptide and exposed to LPS as in FIG. 3A were stained for phospho-Erk. […] Arrow indicates a conduit vessel.
Control animals inhaled saline.
Mouse lungs were inflated with an intratracheal instillation of PFA 4% at a constant pressure (20 cm H2O) for 15 minutes. Next, lungs were removed and fixed in PFA 4% for 24 h and embedded in paraffin. Sections (5 μm) were cut for IHC and treated with antigen unmasking solution (Vector Laboratories). Sections were stained with monoclonal rabbit anti p-ERK (1:400 Cell Signaling) overnight and detected with Vectastain Elite Kit (Vector Laboratories). Visualization was done with DAB (Dako Corp) and couterstained with hematoxylin. Images were acquired using 20 or 40× objective on a microscope (model BX51; Olympus) equipped with a digital camera (model DP70 Olympus) using ImagePro software program.

[3] = tested on: mice exposed to aerosolized LPS; test: LPS-induced pulmonary microvascular permeability (Evans blue dye extravasation)
Procedure: B. Mice inhaled LPS with control or Nck blocking peptide as in A. At 6 hours, they were injected with Evans blue dye and leakage into the lung assayed at 1 h.
B. Mice received intraperitoneal injections with the indicated amounts of the PIX blocking or control peptides. They were treated with aerosolized LPS for 6 h then leakage of Evans blue dye into the lung assayed as described in Methods.
Wild type male mice (C57B1/6, 8 to 12 weeks of age, Jackson Labs, Bar Harbor, Me.) were exposed to aerosolized LPS (Salmonella enteritidis, Sigma Co., St. Louis, Mo.) for 30 min. […] Control animals inhaled saline. Some mice received intraperitoneal (ip) injection of the PAK inhibitory or control peptides 30 min prior to treatment. […] Permeability was analyzed at 6 h using the Evans blue dye extravasation technique (Green et al., 1988). Briefly, Evans blue (20 mg/kg; Sigma) was injected intravenously 30 minutes prior to euthanasia. Lungs were perfused through the spontaneously beating right ventricle to remove intravascular dye. Lungs were removed and Evans blue was extracted as described (Peng et al., 2004). The absorption of Evans blue was measured at 620 nm and corrected for the presence of heme pigments: A620 (corrected)=A620−(1.426×A740+0.030) (Wang le et al., 2002). Extravasated Evans blue was calculated against a standard curve (micrograms Evans blue dye per gram lung).

[4] = tested on: HUVECs; test: In vitro permeability: HRP leakage across HUVEC monolayer; type: cell-based, human; details: peptide 20 μg/ml, not shown
Procedure: B. HUVECs were transfected with siRNA oligonucleotides specific to GIT1 or with control, scrambled siRNA. Total cell lysates at 72 hours were analyzed for GIT1 expression by Western blotting (top). Cells on filters were analyzed for permeability to HRP after treatment with VEGF (50 ng/ml), histamine (10 μM) or thrombin (0.2 U/ml).
The βPIX and GIT1 constructs were obtained from Dr. A. F. Horwitz. The ΔGBD βPIX (mutated for GIT1 binding) and ΔSHD mutant of GIT1 (mutated for PIX and MEK binding) were as described (Zhang et al., 2003). Dominant negative MEK1 was as described (Renshaw et al., 1997). GIT1 Smartpool siRNA oligos against human sequence were obtained from Dharmacon and the experiments were carried out in HUVECs. The Smartpool mixture contained 4 different siRNA oligos. The four different sense sequences are:
BAECs on FN-coated 3 μm filters at near-confluence were transfected with 0.5 μg cDNA using Effectene as described above. At 48 h, cells were pre-treated for 60 min with PAK peptides as indicated. For some experiments, cells were nucleofected, then plated on filters and grown to confluence for 48 hr. Filters were then placed in outer wells with 500 μl fresh DMEM without phenol red or serum. To each filter well was added 200 μl medium plus 50 μl of 1.5 μg/ml horseradish peroxidase (HRP) with or without cytokines as described. […]

[5] = tested on: actin cytoskeleton; details: BAECs; 20 μg/ml peptide; bFGF 60 min
Procedure: E. Cells incubated with peptides as in C and stimulated with bFGF for 60 min, then stained for F-actin.
Cells were fixed for 60 minutes in 3.5% formaldehyde, washed, and permeabilized for 10 minutes in 0.2% TX100. Coverslips were blocked with PBS containing 10% goat serum for 60 minutes, then probed 8 hours at 4° C. with 200 μl containing the following antibodies: phospho-ERK at 1:500; phospho-MEK at 1:500; phospho-PAK at 1:500; phospho-MLC at 1:500 (all from BioSource International); βPIX at 1:200 or GIT1 at 1:200 (Santa Cruz Biotechnology). Coverslips were washed and probed overnight at 4° C. with 200 μl anti-mouse IgG-Alexa 568 or anti-rabbit IgG-Alexa 488 (Molecular Probes) at 1:1000. Coverslips were washed and mounted using FluoroMount (Invitrogen).

[6] = target: T1, DOCK180 (Homo sapiens, UniProt Q14185); test: Pull-down from cell lysates with biotin-tagged peptides on streptavidin beads; type: binding; details: higher amounts of cell lysates; not shown
T1 construct: endogenous in cells

[7] = tested on: interaction between PAK and PIX; details: BAECs, 20 μg/ml peptide 1 h, VEGF 30 min
Procedure: BAECs were incubated with PIX blocking or control peptide at 20 μg/ml for 1 h, then stimulated with VEGF for 30 min. Cells were rinsed, lysed, and βPIX immunoprecipitated. The IP's were analyzed by Western blotting.
Cells were stimulated, washed with cold PBS, extracted with 0.5 ml cold immunoprecipitation (IP) buffer (20 mM Tris pH 7.6, 0.5% NP40, 250 mM NaCl, 5 mM EDTA, 3 mM EGTA; plus Sigma protease and phosphatase inhibitor cocktails) for 10 min. They were passed through an 18 gauge needle 3× and centrifuged for 10 min at 12,000×g in a microfuge. Supernatants were precleared with 25 μl of Protein G-agarose beads and incubated with the indicated primary antibody for 2 hrs at 4°. […] 25 μl of protein A- or protein G-agarose beads were added and incubated for another 2 h while rotating at 4° C. Beads were sedimented and washed 3× with 0.5 ml IP buffer and separated by SDS-PAGE. […] Proteins were electrophoretically transferred to PVDF membranes, blocked with 5% milk in Tris-buffered saline (TBS) and probed overnight with primary antibodies in the same buffer. Membranes were washed 4×, probed with secondary antibodies for 2 h, and then visualized using chemiluminescence (ECL, Amersham).

[8] = target: T2, CD2AP (Homo sapiens, UniProt Q9Y5K6); test: Pull-down from cell lysates with biotin-tagged peptides on streptavidin beads; type: binding; details: higher amounts of cell lysates; not shown
T2 construct: endogenous in cells

[9] = target: T3, cortactin (Homo sapiens, UniProt Q14247); test: as above; type: binding; details: Western blotting
T3 construct: endogenous in cells
T3 sequence (Q14247 1-550): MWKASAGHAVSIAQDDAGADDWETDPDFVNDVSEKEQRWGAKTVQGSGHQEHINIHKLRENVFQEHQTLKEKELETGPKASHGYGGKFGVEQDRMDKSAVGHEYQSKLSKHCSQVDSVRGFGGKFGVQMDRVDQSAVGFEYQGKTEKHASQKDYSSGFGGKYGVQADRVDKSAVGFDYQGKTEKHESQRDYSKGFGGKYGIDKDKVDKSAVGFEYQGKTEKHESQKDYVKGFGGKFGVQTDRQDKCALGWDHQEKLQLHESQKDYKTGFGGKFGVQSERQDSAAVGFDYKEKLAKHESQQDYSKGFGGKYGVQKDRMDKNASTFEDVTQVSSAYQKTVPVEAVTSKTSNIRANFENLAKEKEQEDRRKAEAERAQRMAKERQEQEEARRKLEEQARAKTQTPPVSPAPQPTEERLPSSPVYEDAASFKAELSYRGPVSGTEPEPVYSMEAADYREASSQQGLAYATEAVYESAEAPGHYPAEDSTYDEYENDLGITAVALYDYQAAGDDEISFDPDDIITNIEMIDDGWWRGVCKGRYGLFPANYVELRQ
Procedure: (§1) B. Cell lysates were incubated with peptides immobilized on streptavidin beads and the whole cell lysates (WCL) or bound proteins analyzed by Western blotting.
(§2) Cells were stimulated, washed with cold PBS, extracted with 0.5 ml cold immunoprecipitation (IP) buffer (20 mM Tris pH 7.6, 0.5% NP40, 250 mM NaCl, 5 mM EDTA, 3 mM EGTA; plus Sigma protease and phosphatase inhibitor cocktails) for 10 min. They were passed through an 18 gauge needle 3× and centrifuged for 10 min at 12,000×g in a microfuge. […] Anti-GIT1 and anti-βPIX were from Santa Cruz Biotechnology. […] For binding to peptides, 25 μg of biotin-tagged peptides were incubated with 25 μl of streptavidin beads for 30 min, then rinsed and incubated with 0.5 cell lysates for 30 min. Bound proteins were detected by Western blotting with the indicated antibodies. For βPIX, cells were transfected with HA-PIX and blots probed using anti-HA. Proteins were electrophoretically transferred to PVDF membranes, blocked with 5% milk in Tris-buffered saline (TBS) and probed overnight with primary antibodies in the same buffer. Membranes were washed 4×, probed with secondary antibodies for 2 h, and then visualized using chemiluminescence (ECL, Amersham).

[10] = tested on: other SH3-containing proteins; details: cell lysates; Western blotting
Procedure: as §1, §2

[11] = tested on: BAECs; test: In vitro permeability: HRP leakage across BAEC monolayer on 3 μm filters; type: cell-based; details: bovine endothelial cells; peptide 20 μg/ml
Procedure: C. […] Cells were left untreated or stimulated for […] with 25 ng/ml VEGF, 50 ng/ml bFGF, or 10 μM histamine. Leakage of horseradish peroxidase (HRP) across the filter was assayed as described in Methods.
A. BAECs on filters with 3.0 μm pores were pretreated with 20 μg/ml PIX blocking or control peptides for 1 hour, then stimulated with VEGF for 30 minutes. HRP movement across the monolayer was assayed as described in Methods.
BAECs on FN-coated 3 μm filters at near-confluence were transfected with 0.5 μg cDNA using Effectene as described above. At 48 h, cells were pre-treated for 60 min with PAK peptides as indicated. For some experiments, cells were nucleofected, then plated on filters and grown to confluence for 48 hr. Filters were then placed in outer wells with 500 μl fresh DMEM without phenol red or serum. To each filter well was added 200 μl medium plus 50 μl of 1.5 μg/ml horseradish peroxidase (HRP) with or without cytokines as described. After 30 min, filters were removed and fixed, and the medium in the lower wells assayed for HRP as described (Stockton et al., 2004). Values were normalized to control, untreated wells.

[12] = target: T4, βPIX (Homo sapiens, UniProt Q14155); test: Pull-down from cell lysates with biotin-tagged peptides on streptavidin beads; type: binding; details: Western blotting
T4 construct: expressed in transfected cells
T4 sequence (Q14155 1-646 isoform Q14155-1): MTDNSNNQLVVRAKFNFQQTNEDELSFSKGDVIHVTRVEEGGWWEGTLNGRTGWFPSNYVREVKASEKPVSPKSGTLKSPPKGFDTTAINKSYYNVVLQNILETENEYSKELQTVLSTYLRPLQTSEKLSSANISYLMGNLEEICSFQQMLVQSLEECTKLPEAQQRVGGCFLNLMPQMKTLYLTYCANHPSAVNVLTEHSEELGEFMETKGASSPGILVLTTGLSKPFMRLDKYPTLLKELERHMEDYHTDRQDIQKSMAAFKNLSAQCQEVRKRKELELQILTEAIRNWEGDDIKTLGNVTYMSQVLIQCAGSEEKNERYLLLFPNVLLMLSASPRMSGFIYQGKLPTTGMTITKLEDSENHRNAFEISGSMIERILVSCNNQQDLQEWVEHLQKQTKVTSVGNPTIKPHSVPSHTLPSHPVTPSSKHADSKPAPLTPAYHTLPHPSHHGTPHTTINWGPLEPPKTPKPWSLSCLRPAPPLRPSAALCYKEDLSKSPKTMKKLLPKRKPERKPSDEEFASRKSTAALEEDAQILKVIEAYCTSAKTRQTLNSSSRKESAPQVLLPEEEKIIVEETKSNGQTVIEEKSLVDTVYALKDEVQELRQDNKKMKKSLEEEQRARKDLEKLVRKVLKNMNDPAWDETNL
Procedure: as §1, §2

T2 sequence (Q9Y5K6 whole entry, species assumed): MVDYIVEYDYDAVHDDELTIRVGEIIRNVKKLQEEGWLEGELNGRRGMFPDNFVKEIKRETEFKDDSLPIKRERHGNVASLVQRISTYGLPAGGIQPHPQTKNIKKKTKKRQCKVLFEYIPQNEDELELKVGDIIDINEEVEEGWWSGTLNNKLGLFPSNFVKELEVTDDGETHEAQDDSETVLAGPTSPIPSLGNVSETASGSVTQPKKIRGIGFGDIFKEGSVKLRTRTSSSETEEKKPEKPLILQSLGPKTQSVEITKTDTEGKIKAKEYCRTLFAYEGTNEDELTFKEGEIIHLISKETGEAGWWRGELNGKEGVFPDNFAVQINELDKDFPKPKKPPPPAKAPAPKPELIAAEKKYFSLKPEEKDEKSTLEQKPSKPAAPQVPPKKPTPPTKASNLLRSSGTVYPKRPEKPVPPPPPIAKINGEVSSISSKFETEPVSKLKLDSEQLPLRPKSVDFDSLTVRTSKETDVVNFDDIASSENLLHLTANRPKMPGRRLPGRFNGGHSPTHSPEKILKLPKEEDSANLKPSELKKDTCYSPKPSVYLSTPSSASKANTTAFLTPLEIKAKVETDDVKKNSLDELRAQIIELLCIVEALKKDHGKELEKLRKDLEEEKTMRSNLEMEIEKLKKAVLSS

| Molecule | immunostaining for activated Erk [1] | activation of Erk by VEGF (Western blotting) [1] | Erk activation (phospho-Erk staining) in lung sections [2] | leakage of Evans blue dye into the lung after inhalation of LPS ([3]; 1 mg peptide ip prior to aerosolized LPS, assayed at 6 h) | induction of vascular leak by LPS (Evans blue dye) ([3]; 0.5 ml of 70 μM U0126 ip, 6 h) | block of the increase in permeability in vitro in response to VEGF [4] | increase in actin stress fibers in response to bFGF or VEGF [5] | binding of DOCK180 to immobilized peptide [6] | amount of PIX in βPIX immunoprecipitates [7] | reduction of PAK in βPIX precipitates ([7]; peptide washed out before lysis) | binding of CD2AP to immobilized peptide [8] | binding of cortactin to immobilized peptide [9] | binding of other SH3-containing proteins to immobilized peptide [10] | block of the increase in permeability in vitro in response to VEGF [11] | binding of βPIX to immobilized peptide [12] |
| --- | --- | --- | --- | --- | --- | --- | --- | --- | --- | --- | --- | --- | --- | --- | --- |
| YGRKKRRQRRRGKPPAPPMRNTSTM (listed as Homo sapiens) [Nck-blocking peptide] | decreased phosphoErk at cell-cell borders | blocked | largely prevented | strongly inhibited |  |  |  |  |  |  |  |  |  |  |  |
| N#CC(=C(/N)Sc1ccccc1N)/C(C#N)=C(\N)Sc1ccccc1N [U0126, reference compound] | nearly eliminated | blocked | blocked Erk activation throughout the tissue |  | significantly blocked |  |  |  |  |  |  |  |  |  |  |
| YGRKKRRQRRRGPPPVIAPRPEHTKSVYTR-K+Biotin [PIX-binding peptide] |  |  |  |  |  | approximately 80% | blocked | weak but nonspecific binding | no effect | about 70% | weak, specific binding | weak but reproducible binding | no binding | approximately 80% | bound βPIX with high efficiency |
